# In the supplement of paper PMC10307832:
# Assays:
# Assay in all cases: relative viability (nuclei count vs DMSO), 5 days (fraction); higher = more cells survive
# [1] = compound: CS(=O)(=O)c1ccc(C(=O)Nc2ccc(Cl)c(-c3ccccn3)c2)c(Cl)c1 [Vismodegib] + CC(C)C[C@H](NC(=O)[C@H](Cc1ccccc1)NC(=O)c1cnccn1)B(O)O [Bortezomib] (partner 0.002 µM)
# Outline: (§1)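 After 5 days of treatment, lung cancer cells in 1536-well plates were fixed and stained in a single step (final 0.05% Triton X-100, 1% formaldehyde, 1 ug/ml Hoechst) and their nuclei counted on 4× images. Treatment had been applied by pin tool the day after seeding as one drug alone or as a fixed anchor-drug dose with five library-drug doses (not always all listed) in √10 steps. Relative viability is the nuclei count of treated wells divided by that of vehicle wells, and values are medians of duplicate plates.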
# [2] = compound: CS(=O)(=O)c1ccc(-c2cnc(N)c(C(=O)Nc3ccccc3)n2)cc1 [VE-821] + Nc1ncn([C@H]2C[C@H](O)[C@@H](CO)O2)c(=O)n1 [Decitabine] (partner 2 µM)
# Outline: as §1
# [3] = compound: CS(=O)(=O)c1ccc(C(=O)Nc2ccc(Cl)c(-c3ccccn3)c2)c(Cl)c1 [Vismodegib] + COc1cc2c(Oc3ccc(NC(=O)C4(C(=O)Nc5ccc(F)cc5)CC4)cc3F)ccnc2cc1OCCCN1CCOCC1 [Foretinib] (partner 0.25 µM)
# Outline: as §1
Cell Line,relative viability ([1]; first compound 0.08 µM),relative viability ([1]; first compound 0.253 µM),relative viability ([1]; first compound 0.8 µM),relative viability ([1]; first compound 8 µM),relative viability ([2]; first compound 0.08 µM),relative viability ([2]; first compound 0.253 µM),relative viability ([2]; first compound 0.8 µM),relative viability ([2]; first compound 2.53 µM),relative viability ([2]; first compound 8 µM),relative viability ([3]; first compound 0.08 µM),relative viability ([3]; first compound 0.253 µM),relative viability ([3]; first compound 0.8 µM),relative viability ([3]; first compound 2.53 µM),relative viability ([3]; first compound 8 µM),relative viability ([1]; first compound 2.53 µM)
SW 1573,0.958,0.995,1.16,0.946,0.538,0.458,0.433,0.511,0.416,0.994,0.908,0.907,0.895,1.01,–
NCI-H2085,1.08,0.985,1.06,1.02,0.539,0.528,0.778,–,0.538,0.86,0.96,0.989,0.755,0.796,1.1
NCI-H1651,1,0.936,0.953,0.882,0.486,0.697,0.614,0.673,0.543,0.818,0.604,0.782,0.739,0.781,0.619
NCI-H1993,1.03,1.24,0.983,1.08,0.607,0.557,0.596,0.568,0.486,0.863,0.654,0.782,0.773,0.675,1.05
NCI-H2126,1.08,1.09,1.1,1.15,0.523,0.576,0.577,0.588,0.528,1.19,1.13,–,1.09,1.15,1.14
LC-2-ad,1.06,0.987,0.981,0.871,0.747,0.769,0.955,0.865,0.916,0.924,0.848,0.893,0.847,1.02,0.947
NCI-H647,1.01,0.925,1.12,1.1,0.401,0.5,0.385,0.385,0.235,1.24,1.22,1.26,1.02,1.14,1.05
LCLC-97TM1,0.741,0.652,0.804,0.671,0.266,0.278,0.239,0.251,0.178,0.953,0.934,0.869,0.97,0.912,0.694
BEN,0.574,0.787,0.819,0.885,0.699,0.679,0.687,0.768,0.644,0.871,0.799,0.606,0.642,0.644,0.846
NCI-H650,0.855,0.735,0.795,0.687,0.311,0.342,0.383,0.436,0.366,0.792,0.999,0.988,1.03,0.951,0.732
EKVX,1.1,1.09,1.1,1.03,0.406,0.366,0.322,0.327,0.38,0.744,0.702,1.05,0.724,0.737,1.06
NCI-H2009,0.947,0.986,0.976,1.04,0.381,0.413,0.425,0.413,0.398,1.23,1.23,1.29,1.19,1.23,0.967
NCI-H23,1.16,1.01,0.931,0.944,0.304,0.35,0.289,0.36,0.245,0.925,0.899,1.01,0.593,1.2,0.986
LU99A,1.12,1.13,1.25,1.15,1.01,0.763,0.881,0.801,0.395,0.866,0.775,0.751,0.725,0.79,1.09
